Values of other authors in patent US10332616B2, “Movable type method applied to protein-ligand binding” (University of Florida Research Foundation, Inc., priority 2013, dated 2019).
Like-named read-outs stand apart in the source and are kept apart here.

[1] = aqueous solvation free energy, charged compounds (ions)
[2] = experimental solvation free energy, neutral compounds test set
[3] = experimental solvation free energy, test set with 372 neutral compounds

Structure (SMILES)	Exp. ΔGsolv [2]	other results
C=CC(=O)O [i062, acrylicacid, reference compound]	–	Exp. ΔGsolv [1]: -74.00 kcal/mol
CC(=O)C(=O)O [i063, pyruvicacid, reference compound]	–	Exp. ΔGsolv [1]: -68.50 kcal/mol
O=C(O)c1ccccc1 [i064, benzoicacid, reference compound]	–	Exp. ΔGsolv [1]: -71.20 kcal/mol
COc1ccc(N)cc1 [i093, 4-methoxyaniline, reference compound]	–	Exp. ΔGsolv [1]: -71.20 kcal/mol
O=C(O)C(F)(F)F [i118, trifluoroaceticacid, reference compound]	–	Exp. ΔGsolv [1]: -59.30 kcal/mol
O=C(O)CCl [i119, chloroaceticacid, reference compound]	–	Exp. ΔGsolv [1]: -69.70 kcal/mol
O=C(O)C(Cl)Cl [i120, dichloroaceticacid, reference compound]	–	Exp. ΔGsolv [1]: -62.30 kcal/mol
Nc1cccc(Cl)c1 [i125, 3-chloroaniline, reference compound]	–	Exp. ΔGsolv [1]: -74.70 kcal/mol
COO [methylperoxide, reference compound]	–	ΔGsol experimental value (neutral molecule): -5.28 kcal/mol
Cc1ccccc1N [n009]	-5.56 kcal/mol	–
Cc1ccc(N)cc1 [n011]	-5.55 kcal/mol	–
CN(C)c1ccccc1 [n014]	-3.58 kcal/mol	–
CC(=O)OCC(COC(C)=O)OC(C)=O [test0001]	-8.84 kcal/mol	–
FC(F)(F)c1cccc(C(F)(F)F)c1 [test0004]	–	Exp. ΔGsolv [3]: 1.07 kcal/mol
COc1ccc(C(=O)N(C)C)cc1 [test0005]	-11.01 kcal/mol	–
Cc1ccc(C(=O)N(C)C)cc1 [test0006]	-9.76 kcal/mol	–
ClCCOCCCl [test0007]	-4.23 kcal/mol	–
CCOC(C)OCC [test0009]	-3.28 kcal/mol	–
COCOC [test0012]	-2.93 kcal/mol	–
CC(=O)OCCOC(C)=O [test0013]	-6.34 kcal/mol	–
CCOCCOCC [test0014]	-3.54 kcal/mol	–
c1c[nH]cn1 [test0017]	–	Exp. ΔGsolv [3]: -9.81 kcal/mol
CCCCO[N+](=O)[O-] [test1003]	–	Exp. ΔGsolv [3]: -2.1 kcal/mol

Structure (SMILES)	Exp. ΔGsolv [2]	other results
CCC(C)O[N+](=O)[O-] (centres unmarked) [test1004]	–	Exp. ΔGsolv [3]: -1.8 kcal/mol
CC(C)CO[N+](=O)[O-] [test1005]	–	Exp. ΔGsolv [3]: -1.9 kcal/mol
CCc1cccc(CC)c1N(COC)C(=O)CCl [test1007]	-8.2 kcal/mol	–
CNC(=O)O/N=C/C(C)(C)SC [test1008]	-9.8 kcal/mol	–
CCNc1nc(NC(C)C)nc(SC)n1 [test1009]	–	Exp. ΔGsolv [3]: -7.7 kcal/mol
COP(=S)(OC)SCn1nnc2ccccc2c1=O [test1010]	-10 kcal/mol	–
CCCCN(CC)c1c([N+](=O)[O-])cc(C(F)(F)F)cc1[N+](=O)[O-] [test1011]	-3.5 kcal/mol	–
COC(=O)c1ccccc1CS(=O)(=O)NC(=O)Nc1nc(OC)cc(OC)n1 [test1012]	-17.2 kcal/mol	–
CCC(C)n1c(=O)[nH]c(C)c(Br)c1=O (centres unmarked) [test1013]	-9.7 kcal/mol	–
O=C1C2CC=CCC2C(=O)N1SC(Cl)(Cl)Cl (centres unmarked) [test1014]	-9 kcal/mol	–
CNC(=O)Oc1cccc2ccccc12 [test1015]	-9.5 kcal/mol	–
CNC(=O)Oc1cccc2c1OC(C)(C)C2 [test1016]	-9.6 kcal/mol	–
CCOP(=S)(OCC)SCSc1ccc(Cl)cc1 [test1017]	–	Exp. ΔGsolv [3]: -6.5 kcal/mol
ClC1=C(Cl)C2(Cl)C3C(Cl)C(Cl)CC3C1(Cl)C2(Cl)Cl (centres unmarked) [test1018]	–	Exp. ΔGsolv [3]: -3.4 kcal/mol
CCOP(=O)(OCC)O/C(=C\Cl)c1ccc(Cl)cc1Cl [test1019]	-7.1 kcal/mol	–
CCOC(=O)c1ccccc1S(=O)(=O)NC(=O)Nc1nc(Cl)cc(OC)n1 [test1020]	-14 kcal/mol	–
CCOP(=S)(OCC)Oc1nc(Cl)c(Cl)cc1Cl [test1022]	–	Exp. ΔGsolv [3]: -5 kcal/mol
CCOP(=S)(OCC)SC(CCl)N1C(=O)c2ccccc2C1=O (centres unmarked) [test1023]	-5.7 kcal/mol	–
CCOP(=S)(OCC)Oc1cc(C)nc(C(C)C)n1 [test1024]	-6.5 kcal/mol	–
COc1c(Cl)ccc(Cl)c1C(=O)O [test1025]	-9.9 kcal/mol	–
CCN(CC)c1c([N+](=O)[O-])cc(C(F)(F)F)c(N)c1[N+](=O)[O-] [test1027]	-5.7 kcal/mol	–
CCC(C)c1cc([N+](=O)[O-])cc([N+](=O)[O-])c1O (centres unmarked) [test1028]	–	Exp. ΔGsolv [3]: -6.2 kcal/mol
O=S1OC[C@@H]2[C@H](CO1)[C@@]1(Cl)C(Cl)=C(Cl)[C@]2(Cl)C1(Cl)Cl (some centres unmarked) [test1029]	-4.2 kcal/mol	–

Structure (SMILES)	Exp. ΔGsolv [2]	other results
ClC1=C(Cl)C2(Cl)C3C4CC(C5OC45)C3C1(Cl)C2(Cl)Cl (centres unmarked) [test1030]	-5.5 kcal/mol	–
CCOP(=S)(OCC)SCSP(=S)(OCC)OCC [test1031]	-6.1 kcal/mol	–
ClC1=C(Cl)C2(Cl)C3C(Cl)C=CC3C1(Cl)C2(Cl)Cl (centres unmarked) [test1033]	–	Exp. ΔGsolv [3]: -2.6 kcal/mol
CC1=CC(=O)CC(C)(C)C1 [test1034]	–	Exp. ΔGsolv [3]: -5.2 kcal/mol
Cl[C@H]1[C@H](Cl)[C@@H](Cl)[C@@H](Cl)[C@H](Cl)[C@H]1Cl [test1035]	–	Exp. ΔGsolv [3]: -5.4 kcal/mol
CCOC(=O)CC(SP(=S)(OC)OC)C(=O)OCC (centres unmarked) [test1036]	-8.2 kcal/mol	–
CNC(=O)ON=C(C)SC [test1037]	-10.7 kcal/mol	–
COC(=O)c1ccccc1S(=O)(=O)NC(=O)Nc1nc(C)nc(OC)n1 [test1039]	-15.5 kcal/mol	–
CCCN(CCC)c1c([N+](=O)[O-])cc(S(C)(=O)=O)cc1[N+](=O)[O-] [test1040]	-8 kcal/mol	–
CCOP(=S)(OCC)Oc1ccc([N+](=O)[O-])cc1 [test1043]	-6.7 kcal/mol	–
CCCCN(CC)C(=O)SCCC [test1044]	-3.6 kcal/mol	–
CCOP(=S)(OCC)SCSCC [test1045]	-4.4 kcal/mol	–
CCCN(CC1CC1)c1c([N+](=O)[O-])cc(C(F)(F)F)cc1[N+](=O)[O-] [test1046]	–	Exp. ΔGsolv [3]: -2.5 kcal/mol
CSc1nc(NC(C)C)nc(NC(C)C)n1 [test1047]	–	Exp. ΔGsolv [3]: -8.4 kcal/mol
CCC(=O)Nc1ccc(Cl)c(Cl)c1 [test1048]	-7.8 kcal/mol	–
Nc1cnn(-c2ccccc2)c(=O)c1Cl [test1049]	-16.4 kcal/mol	–
CCNc1nc(Cl)nc(NCC)n1 [test1050]	-10.2 kcal/mol	–
COC(=O)c1ccccc1S(=O)(=O)NC(=O)Nc1nc(C)cc(C)n1 [test1051]	-20.3 kcal/mol	–
Cc1[nH]c(=O)n(C(C)(C)C)c(=O)c1Cl [test1052]	-11.1 kcal/mol	–
CCNc1nc(NC(C)(C)C)nc(SC)n1 [test1053]	–	Exp. ΔGsolv [3]: -6.7 kcal/mol
COC(=O)c1sccc1S(=O)(=O)NC(=O)Nc1nc(C)nc(OC)n1 [test1054]	-16.2 kcal/mol	–
COP(=O)(OC)C(O)C(Cl)(Cl)Cl (centres unmarked) [test1055]	-12.7 kcal/mol	–
CCCN(CCC)c1c([N+](=O)[O-])cc(C(F)(F)F)cc1[N+](=O)[O-] [test1056]	–	Exp. ΔGsolv [3]: -3.3 kcal/mol

Structure (SMILES)	Exp. ΔGsolv [2]	other results
CCCSC(=O)N(CCC)CCC [test1057]	-4.1 kcal/mol	–
Nc1ccc(N=Nc2ccc([N+](=O)[O-])cc2)cc1 [test1058]	–	Exp. ΔGsolv [3]: -11.2 kcal/mol
Nc1ccc(Nc2ccccc2)c2c1C(=O)c1ccccc1C2=O [test1059]	-7.4 kcal/mol	–
Nc1ccc(N)c2c1C(=O)c1c(N)ccc(N)c1C2=O [test1060]	-8.9 kcal/mol	–
Nc1cccc2c1C(=O)c1ccccc1C2=O [test1061]	-8 kcal/mol	–
Cc1nc(N(C)C)nc(OC(=O)N(C)C)c1C [test1063]	–	Exp. ΔGsolv [3]: -9.4 kcal/mol
CC(=O)Oc1ccccc1C(=O)O [test2001]	-9.94 kcal/mol	–
CCCCOC(=O)c1ccc(O)cc1 [test2003]	-8.72 kcal/mol	–
Cn1c(=O)c2c(ncn2C)n(C)c1=O [test2004]	-12.64 kcal/mol	–
O=c1cc(Cl)[nH]c(=O)[nH]1 [test2006]	-15.83 kcal/mol	–
O=c1[nH]c(=O)[nH]c(=O)[nH]1 [test2007]	-18.06 kcal/mol	–
O=C(O)c1cc(-c2ccc(F)cc2F)ccc1O [test2010]	-9.4 kcal/mol	–
CCOC(=O)c1ccc(O)cc1 [test2011]	-9.2 kcal/mol	–
CC(C(=O)O)c1ccc(-c2ccccc2)c(F)c1 (centres unmarked) [test2013]	-8.42 kcal/mol	–
Clc1c(Cl)c(Cl)c(Cl)c(Cl)c1Cl [test2015]	-2.33 kcal/mol	–
CC(C)Cc1ccc(C(C)C(=O)O)cc1 (centres unmarked) [test2017]	-7 kcal/mol	–
COC(=O)c1ccc(O)cc1 [test2020]	-9.51 kcal/mol	–
COc1ccc2cc([C@H](C)C(=O)O)ccc2c1 [test2021]	-10.21 kcal/mol	–
Nc1ccc([N+](=O)[O-])cc1 [test2022]	–	Exp. ΔGsolv [3]: -9.45 kcal/mol
FC1(F)C(F)(F)C(F)(F)C1(F)F [test2023]	3.43 kcal/mol	–
